Assays:
Experiment in all cases: KINOMEscan competition binding
Conditions in all cases: compound 10.0 µM
[1] = molecular target: GSK3A (human) (UniProt P49840)
[2] = molecular target: CLK4 (human) (UniProt Q9HAZ1)
[3] = molecular target: MAP3K2 (human) (UniProt Q9Y2U5)
[4] = molecular target: JAK3 JH1 catalytic (human) (UniProt P52333)
[5] = molecular target: PIP4K2C (human) (UniProt Q8TBX8)
[6] = molecular target: AAK1 (human) (UniProt Q2M2I8)
[7] = molecular target: RIPK2 (human) (UniProt O43353)
[8] = molecular target: CAMK2D (human) (UniProt Q13557)
[9] = molecular target: PKN3 (M.tuberculosis) (UniProt Q6P5Z2)
[10] = molecular target: PAK1 (human) (UniProt Q13153)
[11] = molecular target: DAPK3 (human) (UniProt O43293)
[12] = molecular target: CHUK (human) (UniProt O15111)
[13] = molecular target: STK16 (human) (UniProt O75716)
[14] = molecular target: CDKL5 (human) (UniProt O76039)
[15] = molecular target: MLTK (human) (UniProt Q9NYL2)
[16] = molecular target: TTK (human) (UniProt P33981)
[17] = molecular target: LIMK1 (human) (UniProt P53667)
[18] = molecular target: RPS6KA5 KD2 (human) (UniProt O75582)
[19] = molecular target: MARK4 (human) (UniProt Q96L34)
[20] = molecular target: PIP5K1C (human) (UniProt O60331)
[21] = molecular target: JAK1 JH2 pseudokinase (human) (UniProt P23458)
[22] = molecular target: EPHA6 (human) (UniProt Q9UF33)
[23] = molecular target: FGR (human) (UniProt P09769)
[24] = molecular target: RPS6KA2 KD2 (human) (UniProt Q15349)
[25] = system: KIT (human), P10721 [L576P]
[26] = molecular target: GRK1 (human) (UniProt Q15835)
[27] = molecular target: CAMK1D (human) (UniProt Q8IU85)
[28] = molecular target: MAPK14 (human) (UniProt Q16539)
[29] = molecular target: CSNK1D (human) (UniProt P48730)
[30] = molecular target: STK11 (human) (UniProt Q15831)
[31] = molecular target: FYN (human) (UniProt P06241)
[32] = molecular target: MERTK (human) (UniProt Q12866)
[33] = molecular target: MAP3K15 (human) (UniProt Q6ZN16)
[34] = molecular target: PRKD2 (human) (UniProt Q9BZL6)
[35] = molecular target: CDK2 (human) (UniProt P24941)
[36] = molecular target: PRKCD (human) (UniProt Q05655)
[37] = molecular target: CDK9 (human) (UniProt P50750)
[38] = molecular target: ICK (human) (UniProt Q9UPZ9)
[39] = molecular target: PTK2B (human) (UniProt Q14289)
[40] = molecular target: MST1R (human) (UniProt Q04912)

CSNK1D (human), sequence (P48730 whole entry, looked up): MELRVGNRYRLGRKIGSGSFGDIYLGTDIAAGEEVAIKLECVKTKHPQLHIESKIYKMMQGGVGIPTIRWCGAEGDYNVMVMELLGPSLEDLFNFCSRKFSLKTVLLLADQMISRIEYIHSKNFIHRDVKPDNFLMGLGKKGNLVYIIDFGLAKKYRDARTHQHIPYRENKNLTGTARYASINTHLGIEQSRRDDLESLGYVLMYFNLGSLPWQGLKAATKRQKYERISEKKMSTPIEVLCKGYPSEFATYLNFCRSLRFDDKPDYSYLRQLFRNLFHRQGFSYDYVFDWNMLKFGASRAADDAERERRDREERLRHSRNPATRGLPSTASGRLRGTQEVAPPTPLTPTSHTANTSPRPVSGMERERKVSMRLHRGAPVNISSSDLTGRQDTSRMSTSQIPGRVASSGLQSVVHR
KIT (human), P10721 [L576P], sequence (P10721 whole entry L576P, looked up): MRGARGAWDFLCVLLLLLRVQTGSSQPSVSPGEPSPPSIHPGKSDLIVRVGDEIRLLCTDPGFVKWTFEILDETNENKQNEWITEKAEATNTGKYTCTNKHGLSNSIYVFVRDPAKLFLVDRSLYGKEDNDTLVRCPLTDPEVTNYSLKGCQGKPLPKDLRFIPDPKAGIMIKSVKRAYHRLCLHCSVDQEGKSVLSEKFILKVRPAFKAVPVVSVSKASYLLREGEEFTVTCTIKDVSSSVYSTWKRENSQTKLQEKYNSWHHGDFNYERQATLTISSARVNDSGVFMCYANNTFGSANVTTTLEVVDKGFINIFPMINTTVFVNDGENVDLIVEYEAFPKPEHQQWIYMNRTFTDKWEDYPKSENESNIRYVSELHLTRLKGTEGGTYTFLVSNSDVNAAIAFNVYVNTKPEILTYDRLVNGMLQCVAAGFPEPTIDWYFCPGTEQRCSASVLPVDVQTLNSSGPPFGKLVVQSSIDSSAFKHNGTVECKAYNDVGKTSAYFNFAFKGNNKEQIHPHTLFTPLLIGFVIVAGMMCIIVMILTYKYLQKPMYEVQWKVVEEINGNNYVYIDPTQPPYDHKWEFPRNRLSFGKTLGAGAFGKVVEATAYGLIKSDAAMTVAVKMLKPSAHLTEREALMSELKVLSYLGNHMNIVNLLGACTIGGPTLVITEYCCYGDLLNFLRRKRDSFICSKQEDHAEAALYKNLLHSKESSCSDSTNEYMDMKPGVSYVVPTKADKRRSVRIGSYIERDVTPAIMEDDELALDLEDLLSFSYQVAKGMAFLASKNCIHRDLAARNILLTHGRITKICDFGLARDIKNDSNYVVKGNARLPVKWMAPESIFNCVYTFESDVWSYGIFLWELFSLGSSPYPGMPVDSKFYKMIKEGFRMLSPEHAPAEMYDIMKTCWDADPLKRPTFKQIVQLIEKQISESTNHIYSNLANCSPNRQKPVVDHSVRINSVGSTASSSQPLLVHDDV
CDK9 (human), sequence (P50750 whole entry, looked up): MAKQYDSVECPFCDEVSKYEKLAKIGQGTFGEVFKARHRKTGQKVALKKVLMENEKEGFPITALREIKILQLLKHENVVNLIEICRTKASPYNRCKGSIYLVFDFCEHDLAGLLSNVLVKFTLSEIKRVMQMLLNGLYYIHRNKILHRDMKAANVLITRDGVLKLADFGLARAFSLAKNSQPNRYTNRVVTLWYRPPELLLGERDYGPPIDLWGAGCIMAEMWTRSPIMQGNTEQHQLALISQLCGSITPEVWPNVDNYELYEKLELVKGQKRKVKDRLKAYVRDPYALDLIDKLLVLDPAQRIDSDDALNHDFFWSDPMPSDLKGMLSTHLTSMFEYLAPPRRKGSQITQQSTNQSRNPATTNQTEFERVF
JAK3 JH1 catalytic (human), sequence (P52333 whole entry, looked up): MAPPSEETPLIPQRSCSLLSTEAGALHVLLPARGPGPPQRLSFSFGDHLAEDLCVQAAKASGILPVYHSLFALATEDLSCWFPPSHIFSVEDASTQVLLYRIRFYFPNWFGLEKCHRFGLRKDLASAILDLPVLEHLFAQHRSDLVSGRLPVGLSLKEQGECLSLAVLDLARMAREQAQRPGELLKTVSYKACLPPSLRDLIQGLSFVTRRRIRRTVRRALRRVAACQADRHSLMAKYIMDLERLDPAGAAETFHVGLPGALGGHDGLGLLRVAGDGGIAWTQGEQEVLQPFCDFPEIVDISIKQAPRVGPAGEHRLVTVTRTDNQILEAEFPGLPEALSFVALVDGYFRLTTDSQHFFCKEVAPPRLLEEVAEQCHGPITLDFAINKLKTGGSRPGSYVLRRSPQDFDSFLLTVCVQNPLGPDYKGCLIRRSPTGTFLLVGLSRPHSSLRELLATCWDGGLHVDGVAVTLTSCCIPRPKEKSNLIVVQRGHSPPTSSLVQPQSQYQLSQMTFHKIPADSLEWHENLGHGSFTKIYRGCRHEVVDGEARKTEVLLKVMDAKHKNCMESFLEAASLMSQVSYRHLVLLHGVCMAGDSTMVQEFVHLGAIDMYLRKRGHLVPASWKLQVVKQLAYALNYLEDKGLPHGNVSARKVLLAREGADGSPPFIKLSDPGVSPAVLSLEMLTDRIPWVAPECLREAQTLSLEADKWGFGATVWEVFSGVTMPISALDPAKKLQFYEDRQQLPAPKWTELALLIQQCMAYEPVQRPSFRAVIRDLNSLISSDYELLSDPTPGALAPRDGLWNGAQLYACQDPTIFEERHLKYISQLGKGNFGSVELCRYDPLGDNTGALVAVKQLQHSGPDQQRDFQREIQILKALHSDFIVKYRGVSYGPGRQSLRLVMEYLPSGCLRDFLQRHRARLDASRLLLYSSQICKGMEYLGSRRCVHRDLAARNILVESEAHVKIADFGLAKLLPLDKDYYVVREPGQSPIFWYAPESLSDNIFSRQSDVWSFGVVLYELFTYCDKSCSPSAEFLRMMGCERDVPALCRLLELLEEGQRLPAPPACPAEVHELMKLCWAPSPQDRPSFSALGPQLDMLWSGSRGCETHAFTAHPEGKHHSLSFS
MARK4 (human), sequence (Q96L34 whole entry, looked up): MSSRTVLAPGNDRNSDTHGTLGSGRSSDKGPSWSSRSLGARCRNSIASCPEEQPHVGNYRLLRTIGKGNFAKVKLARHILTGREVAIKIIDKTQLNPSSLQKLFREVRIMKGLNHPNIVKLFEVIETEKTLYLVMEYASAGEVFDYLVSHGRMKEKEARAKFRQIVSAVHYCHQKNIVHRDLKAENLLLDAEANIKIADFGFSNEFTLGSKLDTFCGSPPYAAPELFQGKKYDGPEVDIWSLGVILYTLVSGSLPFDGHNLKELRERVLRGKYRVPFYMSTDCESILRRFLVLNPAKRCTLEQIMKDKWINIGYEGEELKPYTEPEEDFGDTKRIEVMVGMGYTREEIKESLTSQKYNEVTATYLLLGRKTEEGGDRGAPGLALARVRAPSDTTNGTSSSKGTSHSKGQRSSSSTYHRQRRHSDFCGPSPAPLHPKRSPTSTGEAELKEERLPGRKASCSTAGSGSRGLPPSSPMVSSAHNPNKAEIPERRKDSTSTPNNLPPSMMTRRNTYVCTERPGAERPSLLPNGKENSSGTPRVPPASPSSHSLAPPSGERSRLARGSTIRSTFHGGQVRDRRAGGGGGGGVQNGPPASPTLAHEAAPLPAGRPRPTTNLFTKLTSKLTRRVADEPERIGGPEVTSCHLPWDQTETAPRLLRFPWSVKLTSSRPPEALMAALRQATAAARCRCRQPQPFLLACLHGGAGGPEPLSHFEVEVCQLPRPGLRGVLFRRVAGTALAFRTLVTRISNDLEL
CAMK2D (human), sequence (Q13557 whole entry, looked up): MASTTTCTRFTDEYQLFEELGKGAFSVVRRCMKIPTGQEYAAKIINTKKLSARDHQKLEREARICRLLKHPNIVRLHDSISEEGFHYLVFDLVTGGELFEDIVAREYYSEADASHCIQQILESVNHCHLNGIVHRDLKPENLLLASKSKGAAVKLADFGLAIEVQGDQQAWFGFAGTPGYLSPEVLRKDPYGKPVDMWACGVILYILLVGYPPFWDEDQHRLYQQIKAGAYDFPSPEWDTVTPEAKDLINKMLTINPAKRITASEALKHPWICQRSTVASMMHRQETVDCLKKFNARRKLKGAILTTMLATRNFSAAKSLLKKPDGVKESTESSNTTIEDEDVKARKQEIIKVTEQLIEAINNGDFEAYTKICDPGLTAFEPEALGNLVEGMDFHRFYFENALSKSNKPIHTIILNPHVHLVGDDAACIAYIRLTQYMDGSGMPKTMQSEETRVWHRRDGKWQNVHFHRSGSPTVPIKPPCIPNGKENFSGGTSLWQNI
MAP3K2 (human), sequence (Q9Y2U5 whole entry, looked up): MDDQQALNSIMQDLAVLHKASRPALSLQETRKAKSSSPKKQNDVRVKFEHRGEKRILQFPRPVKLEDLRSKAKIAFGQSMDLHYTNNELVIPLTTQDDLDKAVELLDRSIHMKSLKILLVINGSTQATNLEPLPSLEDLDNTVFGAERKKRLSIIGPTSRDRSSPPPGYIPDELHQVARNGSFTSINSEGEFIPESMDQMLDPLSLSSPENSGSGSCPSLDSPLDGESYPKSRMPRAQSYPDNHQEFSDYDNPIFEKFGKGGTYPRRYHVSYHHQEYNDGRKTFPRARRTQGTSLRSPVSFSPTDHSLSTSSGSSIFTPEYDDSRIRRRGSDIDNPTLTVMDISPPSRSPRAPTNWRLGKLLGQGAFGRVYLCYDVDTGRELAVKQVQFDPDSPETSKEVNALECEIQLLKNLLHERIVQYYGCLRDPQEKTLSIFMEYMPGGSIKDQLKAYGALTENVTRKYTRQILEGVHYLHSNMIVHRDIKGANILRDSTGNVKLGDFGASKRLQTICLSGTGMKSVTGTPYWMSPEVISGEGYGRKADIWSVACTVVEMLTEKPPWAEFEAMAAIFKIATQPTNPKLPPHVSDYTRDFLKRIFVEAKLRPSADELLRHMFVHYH

With `C[C@@H](Oc1cc(-c2cnn(C3CCNCC3)c2)cnc1N)c1c(Cl)ccc(F)c1Cl` the kinase still bound, per cent of control [1] was 100%, the kinase still bound, per cent of control [2] was 100% and the kinase still bound, per cent of control [3] was 0.05%. It also gave a kinase still bound, per cent of control [4] of 0.65%, a kinase still bound, per cent of control [5] of 100% and a kinase still bound, per cent of control [6] of 21%. For the same compound, the kinase still bound, per cent of control [7] was 11%, the kinase still bound, per cent of control [8] was 100% and the kinase still bound, per cent of control [9] was 30%. The kinase still bound, per cent of control [10] was 95%, the kinase still bound, per cent of control [11] was 94% and the kinase still bound, per cent of control [12] was 100%. The kinase still bound, per cent of control [13] was 63%, the kinase still bound, per cent of control [14] was 25% and the kinase still bound, per cent of control [15] was 100%. For the same compound, the kinase still bound, per cent of control [16] was 50%, the kinase still bound, per cent of control [17] was 2.7% and the kinase still bound, per cent of control [18] was 95%. It also gave a kinase still bound, per cent of control [19] of 48%, a kinase still bound, per cent of control [20] of 63% and a kinase still bound, per cent of control [21] of 1.8%. The kinase still bound, per cent of control [22] was 0.7%, the kinase still bound, per cent of control [23] was 6.8% and the kinase still bound, per cent of control [24] was 28%. It also gave a kinase still bound, per cent of control [25] of 43%, a kinase still bound, per cent of control [26] of 92% and a kinase still bound, per cent of control [27] of 37%. The kinase still bound, per cent of control [28] was 100%, the kinase still bound, per cent of control [29] was 100% and the kinase still bound, per cent of control [30] was 57%. For the same compound, the kinase still bound, per cent of control [31] was 10%, the kinase still bound, per cent of control [32] was 2.1% and the kinase still bound, per cent of control [33] was 73%. It also gave a kinase still bound, per cent of control [34] of 3.3%, a kinase still bound, per cent of control [35] of 81% and a kinase still bound, per cent of control [36] of 100%. For the same compound, the kinase still bound, per cent of control [37] was 88%.
`COCC(=O)NC/C=C/c1ccc2ncnc(Nc3ccc(Oc4ccc(C)nc4)c(C)c3)c2c1` showed a kinase still bound, per cent of control [1] of 100%, a kinase still bound, per cent of control [2] of 100% and a kinase still bound, per cent of control [3] of 100%. The kinase still bound, per cent of control [4] was 100%, the kinase still bound, per cent of control [5] was 84% and the kinase still bound, per cent of control [6] was 100%. For the same compound, the kinase still bound, per cent of control [7] was 26%, the kinase still bound, per cent of control [38] was 100% and the kinase still bound, per cent of control [8] was 100%. For the same compound, the kinase still bound, per cent of control [9] was 23%, the kinase still bound, per cent of control [10] was 81% and the kinase still bound, per cent of control [11] was 96%. It also gave a kinase still bound, per cent of control [39] of 80%, a kinase still bound, per cent of control [12] of 100% and a kinase still bound, per cent of control [40] of 100%. The kinase still bound, per cent of control [14] was 100%, the kinase still bound, per cent of control [15] was 76% and the kinase still bound, per cent of control [16] was 80%. It also gave a kinase still bound, per cent of control [17] of 93%, a kinase still bound, per cent of control [18] of 98% and a kinase still bound, per cent of control [19] of 100%. It also gave a kinase still bound, per cent of control [20] of 93%, a kinase still bound, per cent of control [22] of 96% and a kinase still bound, per cent of control [23] of 89%. The kinase still bound, per cent of control [25] was 54%, the kinase still bound, per cent of control [26] was 100% and the kinase still bound, per cent of control [27] was 87%. For the same compound, the kinase still bound, per cent of control [28] was 100%, the kinase still bound, per cent of control [29] was 90% and the kinase still bound, per cent of control [31] was 100%. The kinase still bound, per cent of control [32] was 97%, the kinase still bound, per cent of control [33] was 100% and the kinase still bound, per cent of control [34] was 97%. The kinase still bound, per cent of control [35] was 92%, the kinase still bound, per cent of control [36] was 87% and the kinase still bound, per cent of control [37] was 100%.
In the case of `CNC(=O)c1cc(Oc2ccc(NC(=O)Nc3ccc(Cl)c(C(F)(F)F)c3)cc2)ccn1`, the kinase still bound, per cent of control [1] is reported as 67%, the kinase still bound, per cent of control [2] is reported as 52% and the kinase still bound, per cent of control [3] is reported as 100%. For the same compound, the kinase still bound, per cent of control [4] was 58%, the kinase still bound, per cent of control [5] was 100% and the kinase still bound, per cent of control [6] was 100%. It also gave a kinase still bound, per cent of control [7] of 18%, a kinase still bound, per cent of control [38] of 92% and a kinase still bound, per cent of control [8] of 95%. For the same compound, the kinase still bound, per cent of control [9] was 100%, the kinase still bound, per cent of control [10] was 62% and the kinase still bound, per cent of control [11] was 88%. It also gave a kinase still bound, per cent of control [39] of 100%, a kinase still bound, per cent of control [12] of 81% and a kinase still bound, per cent of control [13] of 100%. For the same compound, the kinase still bound, per cent of control [40] was 74%, the kinase still bound, per cent of control [14] was 56% and the kinase still bound, per cent of control [15] was 4.2%. The kinase still bound, per cent of control [16] was 15%, the kinase still bound, per cent of control [17] was 30% and the kinase still bound, per cent of control [18] was 100%. The kinase still bound, per cent of control [19] was 100%, the kinase still bound, per cent of control [20] was 87% and the kinase still bound, per cent of control [21] was 100%. The kinase still bound, per cent of control [22] was 9.2%, the kinase still bound, per cent of control [23] was 53% and the kinase still bound, per cent of control [24] was 81%. The kinase still bound, per cent of control [25] was 0%, the kinase still bound, per cent of control [26] was 100% and the kinase still bound, per cent of control [27] was 96%. The kinase still bound, per cent of control [28] was 0.2%, the kinase still bound, per cent of control [29] was 100% and the kinase still bound, per cent of control [30] was 76%. The kinase still bound, per cent of control [31] was 48%, the kinase still bound, per cent of control [33] was 100% and the kinase still bound, per cent of control [34] was 96%. The kinase still bound, per cent of control [35] was 33%, the kinase still bound, per cent of control [36] was 100% and the kinase still bound, per cent of control [37] was 81%.

Reference: the kinase profiling compilation of Christmann-Franck et al. (2016)
